Source: patent US12522597B2, “Methods and compositions for modulating splicing” (Skyhawk Therapeutics, Inc., priority 2019, dated 2026)

What was measured:
MDR1 = test: MDCK-MDR1 permeability assay (BBB penetration potential); format: in vitro ADME; conditions: dog; for efflux ratio at 120 min, 5 μM: MDCK-MDR1, pH 7.4, MDCK-MDR1: Efflux; for Papp A→B at 120 min, 5 μM: MDCK-MDR1, pH 7.4, MDCK-MDR1: Papp A-B; for Papp B→A at 120 min, 5 μM: MDCK-MDR1, pH 7.4, MDCK-MDR1: Papp B-A
Method: (§1) Each determination is performed in duplicate. […] Analytical conditions are outlined below.

[1] = system: MDR1-MDCK cell monolayers; test: as above; format: in vitro ADME; conditions: dog, MDCK-MDR1, 120 min, 5 μM, pH 7.4
Method: as §1

mHTT protein = mHTT protein assay (2B7-MW1, Mesoscale Discovery); format: cell-based, human; conditions: GM04724 (CAG 70/20) Huntington's disease patient lymphoblast cells, 48 hours, 2B7-MW1 MSD; read-out: HTT Potency - Protein EC50 mHTT (average)
Summary of the method: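 GM04724 Huntington's patient lymphoblasts (CAG 70/20) were treated for 48 h at 10 μM to 0.6 nM. mHTT was quantified by 2B7-MW1 MSD immunoassay, whose signal depends on polyQ expansion and HTT fragment size. Viability was run on a parallel plate by CellTiter-Glo.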

Row | Compound | efflux ratio at 120 min, 5 μM (MDR1) | Papp A→B at 120 min, 5 μM (MDR1) | Papp B→A at 120 min, 5 μM (MDR1) | MDCK-MDR1: % Recov A-B [1] | MDCK-MDR1: % Recov B-A [1] | EC50 (mHTT protein)
1 | Oc1cc(-c2ccc3nccn3c2)ccc1-c1ccc(O[C@@H]2C[C@H]3CCC[C@H](N3)[C@@H]2F)nn1 (single isomer, unassigned) [84-ENT1] | 11 | 1.56 ×10⁻⁶ cm/s | 17 ×10⁻⁶ cm/s | 44% | 72% | 16 to 50 nM
2 | Oc1cc(-c2ccnnc2)ccc1-c1ccc(O[C@@H]2C[C@H]3CCC[C@H](N3)[C@@H]2F)nn1 (single isomer, unassigned) [87-ENT1] | 20 | 2.75 ×10⁻⁶ cm/s | 55.8 ×10⁻⁶ cm/s | 92% | 100% | 101 to 500 nM
3 | Cc1cnc(-c2ccc(-c3ccc(O[C@@H]4C[C@H]5CCC[C@H](N5)[C@@H]4F)nn3)c(O)c2)cn1 (single isomer, unassigned) [78-ENT1] | 3 | 7.17 ×10⁻⁶ cm/s | 24.5 ×10⁻⁶ cm/s | 65% | 78% | 101 to 500 nM
4 | Oc1cc(-n2ccnc2)ccc1-c1ccc(O[C@@H]2C[C@H]3CC[C@H](N3)[C@@H]2F)nn1 (single isomer, unassigned) [36-ENT1] | 5 | 5.28 ×10⁻⁶ cm/s | 26 ×10⁻⁶ cm/s | 74% | 83% | 51 to 100 nM
5 | Oc1cc(-c2ccc3nncn3c2)ccc1-c1ccc(O[C@@H]2C[C@H]3CCC[C@H](N3)[C@@H]2F)nn1 (single isomer, unassigned) [73-ENT1] | 92 | 0.44 ×10⁻⁶ cm/s | 40.9 ×10⁻⁶ cm/s | 94% | 85% | 101 to 500 nM
6 | Oc1cc(-n2ncc3ccccc32)ccc1-c1ccc(O[C@H]2C[C@@H]3CC[C@@H](N3)[C@H]2F)nn1 (single isomer, unassigned) [114-ENT2] | 4 | 3.86 ×10⁻⁶ cm/s | 15.1 ×10⁻⁶ cm/s | 18% | 42% | 501 to 10000 nM
7 | Cn1cc(-c2cc(O)c(-c3ccc(O[C@H]4C[C@@H]5CCC[C@@H](N5)[C@H]4F)nn3)c(F)c2)cn1 (single isomer, unassigned) [118-ENT2] | 8 | 4.5 ×10⁻⁶ cm/s | 36.8 ×10⁻⁶ cm/s | 52% | 80% | 101 to 500 nM
8 | CN(C)C(=O)c1cc2cc(O)c(-c3ccc(O[C@@H]4C[C@@]5(C)CCC[C@](C)(N5)[C@@H]4F)nn3)cc2o1 (single isomer, unassigned) [155-ENT1] | 16 | 3.71 ×10⁻⁶ cm/s | 59.4 ×10⁻⁶ cm/s | 90% | 95% | 501 to 10000 nM
9 | N#Cc1ccc(-c2ccc(O[C@H]3C[C@@H]4CC[C@@H](N4)[C@H]3F)nn2)c(O)c1 (single isomer, unassigned) [111-ENT2] | 4 | 14.4 ×10⁻⁶ cm/s | 58.7 ×10⁻⁶ cm/s | 92% | 96% | 501 to 10000 nM
10 | Cc1nc(-c2ccc(-c3ccc(O[C@@H]4C[C@H]5CCC[C@H](N5)[C@@H]4F)nn3)c(O)c2)co1 (single isomer, unassigned) [92-ENT1] | 5 | 5.99 ×10⁻⁶ cm/s | 30.9 ×10⁻⁶ cm/s | 65% | 74% | 101 to 500 nM
11 | Cc1ccc(-c2ccc(-c3ccc(O[C@H]4C[C@@H]5CCC[C@@H](N5)[C@H]4F)nn3)c(O)c2)s1 (single isomer, unassigned) [100-ENT2] | 1 | 1.14 ×10⁻⁶ cm/s | 0.68 ×10⁻⁶ cm/s | 18% | 57% | 101 to 500 nM
12 | Oc1cc(-c2nnco2)c(F)cc1-c1ccc(O[C@@H]2C[C@H]3CC[C@H](N3)[C@@H]2F)nn1 (stereo in doubt) [142-ENT1, 4-fluoro-2-(6-(((1S,2S,3R,5R)-2-fluoro-8-azabicyclo[3.2.1]octan-3-yl)oxy)pyridazin-3-yl)-5-(1,3,4-oxadiazol-2-yl)phenol] | 6 | 6.9 ×10⁻⁶ cm/s | 41.8 ×10⁻⁶ cm/s | 98% | 103% | 51 to 100 nM
13 | Oc1cc(-n2ccnn2)ccc1-c1ccc(O[C@H]2C[C@@H]3CCC[C@@H](N3)[C@H]2F)nn1 (single isomer, unassigned) [69-ENT2] | 5 | 10.7 ×10⁻⁶ cm/s | 55.9 ×10⁻⁶ cm/s | 86% | 93% | 101 to 500 nM
14 | Cn1cc(-c2ccc(-c3ccc(O[C@@H]4C[C@H]5CCC[C@H](N5)[C@@H]4F)nn3)c(O)c2)c(F)n1 (single isomer, unassigned) [109-ENT1] | 3 | 5.54 ×10⁻⁶ cm/s | 18.9 ×10⁻⁶ cm/s | 57% | 76% | 16 to 50 nM
15 | Oc1cc(-c2cnn3ccccc23)ccc1-c1ccc(O[C@H]2C[C@@H]3CCC[C@@H](N3)[C@H]2F)nn1 (single isomer, unassigned) [91-ENT2] | 2 | 4.4 ×10⁻⁶ cm/s | 10.5 ×10⁻⁶ cm/s | 30% | 48% | 501 to 10000 nM
16 | Cc1ccc(-c2ccc(-c3ccc(O[C@@H]4C[C@H]5CCC[C@H](N5)[C@@H]4F)nn3)c(O)c2)cn1 (single isomer, unassigned) [67-ENT1] | 7 | 4.42 ×10⁻⁶ cm/s | 29.8 ×10⁻⁶ cm/s | 44% | 62% | 101 to 500 nM
17 | Oc1cc2ccncc2cc1-c1ccc(O[C@H]2C[C@@H]3CCC[C@@H](N3)[C@H]2F)nn1 (single isomer, unassigned) [81-ENT2] | 3 | 9.23 ×10⁻⁶ cm/s | 26.4 ×10⁻⁶ cm/s | 69% | 81% | 501 to 10000 nM
18 | Cn1cc(-c2ccc(-c3ccc(O[C@@H]4C[C@@H]5CCC[C@@H](N5)[C@@H]4F)nn3)c(O)c2)cn1 (single isomer, unassigned) [122-ENT2] | 6 | 6.08 ×10⁻⁶ cm/s | 38.4 ×10⁻⁶ cm/s | 60% | 76% | 501 to 10000 nM
19 | Cn1ccc(=O)c2cc(-c3ccc(O[C@@H]4C[C@@]5(C)CCC[C@](C)(N5)[C@@H]4F)nn3)c(O)cc21 (single isomer, unassigned) [131-ENT2] | 56 | 0.79 ×10⁻⁶ cm/s | 44.6 ×10⁻⁶ cm/s | 91% | 96% | 501 to 10000 nM
20 | O=c1cc(-c2cc(O)c(-c3ccc(O[C@@H]4C[C@H]5CCC[C@H](N5)[C@@H]4F)nn3)cc2F)cc[nH]1 (single isomer, unassigned) [57-ENT1] | 73 | 0.26 ×10⁻⁶ cm/s | 18.9 ×10⁻⁶ cm/s | 94% | 101% | 101 to 500 nM
21 | Oc1cc(-n2ccnc2)ccc1-c1ccc(O[C@@H]2C[C@H]3CC(F)(F)[C@@H](C2)N3)nn1 (single isomer, unassigned) [51-ENT1] | 2 | 32.2 ×10⁻⁶ cm/s | 51.5 ×10⁻⁶ cm/s | 90% | 99% | 501 to 10000 nM
22 | Oc1cc(-n2ncc3ccccc32)ccc1-c1ccc(O[C@@H]2C[C@H]3CC[C@H](N3)[C@@H]2F)nn1 (single isomer, unassigned) [114-ENT1] | 3 | 4.74 ×10⁻⁶ cm/s | 13.5 ×10⁻⁶ cm/s | 22% | 47% | 501 to 10000 nM
23 | Cc1cc(-c2ccc(-c3ccc(O[C@H]4C[C@@H]5CCC[C@@H](N5)[C@H]4F)nn3)c(O)c2)ccn1 (single isomer, unassigned) [88-ENT2] | 4 | 5.13 ×10⁻⁶ cm/s | 21.5 ×10⁻⁶ cm/s | 51% | 71% | 16 to 50 nM
24 | Oc1cc(-c2ccn3cnnc3c2)ccc1-c1ccc(O[C@@H]2C[C@H]3CCC[C@H](N3)[C@@H]2F)nn1 (single isomer, unassigned) [86-ENT1] | 46 | 0.54 ×10⁻⁶ cm/s | 24.7 ×10⁻⁶ cm/s | 89% | 93% | 101 to 500 nM
25 | Oc1cc2cnccc2cc1-c1ccc(O[C@@H]2C[C@H]3CCC[C@H](N3)[C@@H]2F)nn1 (single isomer, unassigned) [80-ENT1] | 4 | 7.47 ×10⁻⁶ cm/s | 31.4 ×10⁻⁶ cm/s | 70% | 78% | 101 to 500 nM
26 | Oc1cc(-c2cc[nH]n2)ccc1-c1ccc(O[C@H]2C[C@@H]3CCC[C@@H](N3)[C@H]2F)nn1 (single isomer, unassigned) [66-ENT2] | 9 | 1.18 ×10⁻⁶ cm/s | 11.2 ×10⁻⁶ cm/s | 79% | 78% | 51 to 100 nM
